Here are results for three compounds from US9096591B2, “Tetracyclic compounds” (Medivation Technologies, Inc., priority 2007, dated 2015).

Read-outs that look alike come from different tables or passages of the source.

The target in test [1] is T1, human recombinant adrenergic α1D receptor (Homo sapiens, UniProt P25100).
T1 construct: expressed in transfected cells; host or cells: HEK-293 cells
T1 sequence (P25100 1-572): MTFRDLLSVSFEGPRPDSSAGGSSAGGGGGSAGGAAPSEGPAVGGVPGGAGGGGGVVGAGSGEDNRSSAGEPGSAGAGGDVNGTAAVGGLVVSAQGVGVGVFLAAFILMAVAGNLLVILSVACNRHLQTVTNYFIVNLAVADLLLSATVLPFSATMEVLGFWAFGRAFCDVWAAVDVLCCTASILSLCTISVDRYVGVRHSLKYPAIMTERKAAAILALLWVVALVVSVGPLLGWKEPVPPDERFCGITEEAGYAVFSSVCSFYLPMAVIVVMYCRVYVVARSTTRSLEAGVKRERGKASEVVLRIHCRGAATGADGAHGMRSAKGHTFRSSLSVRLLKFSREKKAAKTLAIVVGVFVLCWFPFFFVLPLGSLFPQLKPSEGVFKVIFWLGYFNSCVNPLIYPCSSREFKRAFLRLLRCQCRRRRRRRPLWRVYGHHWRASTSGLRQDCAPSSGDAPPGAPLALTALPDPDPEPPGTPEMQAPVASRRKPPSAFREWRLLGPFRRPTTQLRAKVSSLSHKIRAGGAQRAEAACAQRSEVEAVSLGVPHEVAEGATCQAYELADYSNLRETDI
In words: Adrenergic α1D radioligand binding ([3H]Prozosin). The settings on record: percent inhibition of specific binding. Further details: Inhibition of ligand binding, Adren. alpha1D: concentration or dose not given beside the values. On the procedure: Compounds of invention were incubated with 0.6 nM [^3H]Prozosin for 60 minutes at 25° C. Non-specific binding was estimated in the presence of 10 μM phentolamine. Receptor proteins were filtered and washed, the filters were then counted to determine [^3H]Prozosin specifically bound. […] Biochemical assay results are presented as the percent inhibition of specific binding in Table 6.

The target in test [2] is T2, human recombinant serotonin (5-Hydroxytryptamine) 5-HT2C receptor (Homo sapiens, UniProt P28335).
T2 construct: expressed in transfected cells; host or cells: CHO-K1 cells
T2 sequence (P28335 33-458): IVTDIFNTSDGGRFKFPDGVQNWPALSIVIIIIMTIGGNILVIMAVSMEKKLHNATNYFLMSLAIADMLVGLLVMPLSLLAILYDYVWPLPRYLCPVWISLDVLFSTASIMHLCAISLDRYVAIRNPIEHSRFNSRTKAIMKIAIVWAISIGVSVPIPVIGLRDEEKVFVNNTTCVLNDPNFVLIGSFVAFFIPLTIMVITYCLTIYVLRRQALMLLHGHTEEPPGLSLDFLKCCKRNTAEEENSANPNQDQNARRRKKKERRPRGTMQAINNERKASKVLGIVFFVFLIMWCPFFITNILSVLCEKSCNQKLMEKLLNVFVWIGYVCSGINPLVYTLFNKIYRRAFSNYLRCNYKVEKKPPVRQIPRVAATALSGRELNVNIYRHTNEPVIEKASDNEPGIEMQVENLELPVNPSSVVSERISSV
In words: Serotonin 5-HT2C radioligand binding ([3H]Mesulergine). Further details: Inhibition of ligand binding, Ser. 5-HT2C: concentration or dose not given beside the values. To be noted: percent inhibition of specific binding. The procedure:
Compounds of the invention were incubated with 1 nM [^3H]Mesulergine for 60 minutes at 25° C. Non-specific binding was estimated in the presence of 1 μM Mianserin. Receptor proteins were filtered and washed, the filters were then counted to determine [^3H]Mesulergine specifically bound. […] Biochemical assay results are presented as the percent inhibition of specific binding in Table 6.

The subject of the next test is rat brain mitochondria. In words: Ca2+-induced swelling of mitochondria (MPT pore opening). It is filed as biochemical, Wistar rats. The settings on record: for A540 increase in mitochondrial suspension after addition of 100 μM of compound: 100 μM compound. On the procedure: Rat liver and brain mitochondria were prepared from male Wistar rats. The rats were euthanized in a CO2 chamber followed by decapitation the procedure being in compliance with the Guidelines for Animal Experiments at IPAC RAS. […]
Brain mitochondria were isolated from the pooled forebrains of two rats. The modified method of Sims was used to isolate and purify brain mitochondria in a Percoll gradient. The brain was homogenized in “buffer A” (225 mM mannitol, 75 mM sucrose, 5 mM HEPES, 1 mM EGTA, pH 7.4 [KOH]) and centrifuged for 10 min at 1300 g. The supernatant was centrifuged for 10 min at 10000 g, and then the pellet was suspended in 15% Percoll and layered on a discontinuous gradient consisting of 40 and 23% Percoll, respectively, which was then centrifuged for 10 min at 30000 g without using brakes. The mitochondria were collected from the interface of the lower two layers and after resuspension in “buffer A”, the suspension was centrifuged at 16600 g for 10 min, then the pellet was resuspended in “buffer A”, BSA (10 mg/mL) was added to bind free fatty acids; and the suspensions was centrifuged again at 6300 g for 10 min. Following centrifugation the pelleted mitochondria were re-suspended in isolation medium without EGTA to achieve a protein concentration of 15-20 mg/ml.
Mitochondrial swelling caused by influx of solutes through open PT pores results in an increase in light transmission (i.e., a reduced turbidity). This turbidity change offers a convenient and frequently used assay of the MPT by measurement of absorbance in mitochondrial suspensions. In the present study, the MPT induced by Ca^2+ and inorganic phosphate (Ca/Pi) was monitored by absorbance changes at 540 nm in a cuvette in a Beckman DU 640 spectrophotometer in 1 ml of buffer A plus 0.8 μM rotenone, 5 mM succinate, 1 mM KH2PO4 and 0.5 mg or 0.2 mg protein of isolated liver or brain mitochondria, accordingly. Reaction was started by the addition of triggering agent (Ca^2+). Pre-treatment and reaction were performed at 30° C. Swelling rate was quantified as ΔA540/min/mg, calculated, in all cases, from a tangent to the steepest portion of the plot of A540 versus time.
Ca^2+-induced Swelling of mitochondria was used as the primary screening test for compounds influence on MPT pore opening. […] But the inhibition of swelling may be connected not only with direct inhibition of MPT pore opening but also with the impairment of respiratory function of mitochondria and with the compounds action on calcium transport into mitochondria. For the primary estimation of these possibilities the mitochondrial membrane potential and calcium retention capacity of mitochondria were measured. […] New synthesized compounds (except C-14 and C-43) alone induced an increase of brain mitochondria suspension turbidity. The mechanism of such effect needs additional investigations.

The mark [3] stands for this setting: read-out: IC50, Ca2+-induced (25-50 μM) swelling of brain mitochondria, rat brain mitochondria, Ca2+ 25-50 μM.

Usually IC50 stands for the concentration needed to halve the response being measured.

Regarding `CN1CCc2c(c3cc(Cl)ccc3n2CCc2ccc(C(F)(F)F)nc2)C1` [Compound 250], in test [1], the “Inhibition of ligand binding, Adren. alpha1D” value was 93%. The “Inhibition of ligand binding, Ser. 5-HT2C” value in test [2] is on record as 79%.
Consider `CN1CCc2c(c3cc(Cl)ccc3n2CCc2nc(-c3ccccc3)cs2)C1` [Compound C1-8], for which the half-maximal inhibitory concentration (IC50) was roughly 6 µM in the test on rat brain mitochondria (concentration reducing to 50% the initial rate of turbidity fall after calcium addition, read-out: IC50, decrease of calcium-induced swelling of brain mitochondria) and 6.25 ± 6.25 µM with rat brain mitochondria (setting [3]). The “A540 increase in mitochondrial suspension after addition of 100 μM of compound” value in the test with rat brain mitochondria (rat brain mitochondria) amounted to 25 rel.units.
With `Cc1ccc2c(c1)c1c(n2CCc2ccc(C)nc2)CCN(C)C1` [Dimebon, dimebon, reference compound], the “A540 increase in mitochondrial suspension after addition of 100 μM of compound” value in the test on rat brain mitochondria (rat brain mitochondria) was determined as 1 rel.units. The IC50 in the test on rat brain mitochondria (setting [3]) came out at 66 ± 26 µM. In test [1], the “Inhibition of ligand binding, Adren. alpha1D” value was 91%. For the same compound, in test [2], the “Inhibition of ligand binding, Ser. 5-HT2C” value is 86%.
